Series [1] deals with T1, Meprin A subunit beta (Homo sapiens, UniProt Q16820).
T1 sequence (Q16820 whole entry): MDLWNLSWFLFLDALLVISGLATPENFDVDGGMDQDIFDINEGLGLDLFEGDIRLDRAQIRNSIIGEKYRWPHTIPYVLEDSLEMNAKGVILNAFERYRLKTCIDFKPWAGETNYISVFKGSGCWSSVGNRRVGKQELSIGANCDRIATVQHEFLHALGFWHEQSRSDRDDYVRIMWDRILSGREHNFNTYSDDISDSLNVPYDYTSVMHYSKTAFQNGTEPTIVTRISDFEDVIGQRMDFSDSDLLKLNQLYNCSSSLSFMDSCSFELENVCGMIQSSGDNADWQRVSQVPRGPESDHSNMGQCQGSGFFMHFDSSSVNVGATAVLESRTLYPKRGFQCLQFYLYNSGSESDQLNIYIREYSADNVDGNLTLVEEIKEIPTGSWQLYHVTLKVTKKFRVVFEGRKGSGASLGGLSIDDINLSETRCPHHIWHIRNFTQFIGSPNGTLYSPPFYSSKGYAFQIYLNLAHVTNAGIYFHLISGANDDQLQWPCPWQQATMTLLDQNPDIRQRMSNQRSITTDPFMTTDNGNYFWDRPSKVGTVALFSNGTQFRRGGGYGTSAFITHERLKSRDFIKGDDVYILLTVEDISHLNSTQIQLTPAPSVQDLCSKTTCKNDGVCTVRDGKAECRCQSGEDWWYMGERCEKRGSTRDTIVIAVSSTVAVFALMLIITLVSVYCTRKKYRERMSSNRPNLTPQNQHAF
Briefly: Inhibition of recombinant human meprin beta expressed in yeast using Abz-YVAEAPK(Dnp)G-OH as substrate by fluorescence assay.

Series [2] concerns the target T1, Meprin A subunit beta. Briefly: Inhibition of human meprin beta expressed in baculovirus infected BTI-TN-5B1-4 insect cells using N-benzoyl-L-tyrosylp-aminobenzoic acid as substrate.
The next series addresses T2, Meprin A subunit alpha (Homo sapiens, UniProt Q16819).
T2 sequence (Q16819 whole entry): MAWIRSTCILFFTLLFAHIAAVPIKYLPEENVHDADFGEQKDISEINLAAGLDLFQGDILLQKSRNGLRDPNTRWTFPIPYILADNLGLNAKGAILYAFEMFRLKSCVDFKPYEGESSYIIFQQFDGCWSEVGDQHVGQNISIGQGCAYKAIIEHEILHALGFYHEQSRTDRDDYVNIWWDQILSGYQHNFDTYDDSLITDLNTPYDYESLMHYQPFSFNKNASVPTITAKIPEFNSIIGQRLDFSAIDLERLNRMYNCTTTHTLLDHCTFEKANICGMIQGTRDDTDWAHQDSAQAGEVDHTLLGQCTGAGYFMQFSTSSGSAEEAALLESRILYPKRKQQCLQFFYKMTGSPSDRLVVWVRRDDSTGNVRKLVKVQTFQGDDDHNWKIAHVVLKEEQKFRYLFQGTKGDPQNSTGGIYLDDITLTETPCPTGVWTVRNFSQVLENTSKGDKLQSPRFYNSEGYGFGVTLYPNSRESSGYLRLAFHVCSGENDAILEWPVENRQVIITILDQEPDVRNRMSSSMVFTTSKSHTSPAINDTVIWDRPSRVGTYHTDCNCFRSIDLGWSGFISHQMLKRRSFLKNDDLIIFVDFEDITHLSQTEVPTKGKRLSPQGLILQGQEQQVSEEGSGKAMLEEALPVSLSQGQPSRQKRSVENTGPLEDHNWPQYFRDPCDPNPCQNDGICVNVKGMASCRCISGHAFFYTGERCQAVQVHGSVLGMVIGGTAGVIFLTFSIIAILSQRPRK
Briefly: Inhibition of recombinant human meprin alpha expressed in S2 insect cells using Abz-YVADAPK(Dnp)G-OH as substrate by fluorescence assay.

Series [3] addresses T3, Matrix metalloproteinase-9 (Homo sapiens, UniProt P14780). Briefly: Inhibition of APMA-activated recombinant human MMP9 expressed in CHO cells at 200 uM using Mca-PLGL-(DapDnp)-AR-NH2 as substrate by fluorescence assay.
For series [4], the species on record is Homo sapiens. As to the kind of experiment: Selectivity ratio of IC50 for recombinant human C-terminal His10-tagged ADAM10 expressed in baculovirus infected Sf21 cells to IC50 for recombinant human meprin beta expressed in yeast.
Series [5] has as its target T4, Collagenase 3 (Homo sapiens, UniProt P45452). As to the kind of experiment: Inhibition of APMA-activated recombinant human MMP13 expressed in mouse NS0 cells at 200 uM using Mca-PLGL-(DapDnp)-AR-NH2 as substrate by fluorescence assay.
For series [6], the target named is T5, Disintegrin and metalloproteinase domain-containing protein 10 (Homo sapiens, UniProt O14672).
T5 sequence (O14672 whole entry): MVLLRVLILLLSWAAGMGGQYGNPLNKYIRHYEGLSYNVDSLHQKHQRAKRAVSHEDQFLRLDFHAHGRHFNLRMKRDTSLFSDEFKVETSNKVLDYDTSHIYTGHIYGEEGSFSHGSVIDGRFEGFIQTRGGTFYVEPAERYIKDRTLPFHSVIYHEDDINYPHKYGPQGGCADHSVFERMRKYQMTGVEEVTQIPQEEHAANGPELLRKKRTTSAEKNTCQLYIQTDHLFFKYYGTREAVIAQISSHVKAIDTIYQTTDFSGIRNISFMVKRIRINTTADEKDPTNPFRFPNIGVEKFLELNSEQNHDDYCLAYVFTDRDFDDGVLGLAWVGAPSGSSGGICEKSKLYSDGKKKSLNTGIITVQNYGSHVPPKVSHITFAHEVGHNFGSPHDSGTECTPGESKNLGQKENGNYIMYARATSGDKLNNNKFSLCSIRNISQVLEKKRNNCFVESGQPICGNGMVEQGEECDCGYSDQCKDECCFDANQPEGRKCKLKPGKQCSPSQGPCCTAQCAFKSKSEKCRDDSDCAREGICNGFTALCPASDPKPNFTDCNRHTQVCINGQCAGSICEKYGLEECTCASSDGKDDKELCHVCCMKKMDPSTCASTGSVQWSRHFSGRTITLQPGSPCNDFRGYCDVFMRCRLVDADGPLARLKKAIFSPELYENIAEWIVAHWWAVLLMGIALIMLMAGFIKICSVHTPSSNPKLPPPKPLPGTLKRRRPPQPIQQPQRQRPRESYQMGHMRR
As to the kind of experiment: Inhibition of recombinant human C-terminal His10-tagged ADAM10 expressed in baculovirus infected Sf21 cells at 200 uM using Abz-LANAVRSSSR-(DapDnp)-NH2 as substrate by fluorescence assay.

Series [7] concerns the target T6, Disintegrin and metalloproteinase domain-containing protein 17 (Homo sapiens, UniProt P78536). As to the kind of experiment: Inhibition of recombinant human C-terminal His6-tagged ADAM17 expressed in baculovirus infected Sf21 cells at 200 uM using Abz-LANAVRSSSR-(DapDnp)-NH2 as substrate by fluorescence assay.
The species entered for series [8] is Homo sapiens. As to the kind of experiment: Selectivity ratio of IC50 APMA-activated recombinant human MMP2 expressed in CHO cells to IC50 for recombinant human meprin beta expressed in yeast. The series is classed as cell-based.
Series [9] has as its target T7, 72 kDa type IV collagenase (Homo sapiens, UniProt P08253). As to the kind of experiment: Inhibition of APMA-activated recombinant human MMP2 expressed in CHO cells at 200 uM using Mca-PLGL-(DapDnp)-AR-NH2 as substrate by fluorescence assay.
The species entered for series [10] is Homo sapiens. Briefly: Selectivity ratio of IC50 for recombinant human meprin alpha expressed in S2 insect cells to IC50 for recombinant human meprin beta expressed in yeast.
The target of series [11] is T4, Collagenase 3. As to the kind of experiment: Inhibition of APMA-activated recombinant human MMP13 expressed in mouse NS0 cells using Mca-PLGL-(DapDnp)-AR-NH2 as substrate by fluorescence assay.
Series [12] deals with T6, Disintegrin and metalloproteinase domain-containing protein 17. As to the kind of experiment: Inhibition of recombinant human C-terminal His6-tagged ADAM17 expressed in baculovirus infected Sf21 cells using Abz-LANAVRSSSR-(DapDnp)-NH2 as substrate by fluorescence assay.
The target of series [13] is T3, Matrix metalloproteinase-9. As to the kind of experiment: Inhibition of APMA-activated recombinant human MMP9 expressed in CHO cells using Mca-PLGL-(DapDnp)-AR-NH2 as substrate by fluorescence assay.
For series [14], the target named is T5, Disintegrin and metalloproteinase domain-containing protein 10. As to the kind of experiment: Inhibition of recombinant human C-terminal His10-tagged ADAM10 expressed in baculovirus infected Sf21 cells using Abz-LANAVRSSSR-(DapDnp)-NH2 as substrate by fluorescence assay.
The target of series [15] is T7, 72 kDa type IV collagenase. As to the kind of experiment: Inhibition of APMA-activated recombinant human MMP2 expressed in CHO cells using Mca-PLGL-(DapDnp)-AR-NH2 as substrate by fluorescence assay.
The target of series [16] is T1, Meprin A subunit beta. Briefly: Inhibition of recombinant human meprin beta expressed in baculovirus infected Sf9 insect cells using (MCA)-EDEDED-(K-epsilon-dnp) as substrate by fluorescence assay.

The source of these data is ChEMBL document CHEMBL4017469, “First insight into structure-activity relationships of selective meprin β inhibitors” (Bioorg Med Chem Lett, 2017).

Bounds are passed on as bounds.

T3 sequence (P14780 whole entry): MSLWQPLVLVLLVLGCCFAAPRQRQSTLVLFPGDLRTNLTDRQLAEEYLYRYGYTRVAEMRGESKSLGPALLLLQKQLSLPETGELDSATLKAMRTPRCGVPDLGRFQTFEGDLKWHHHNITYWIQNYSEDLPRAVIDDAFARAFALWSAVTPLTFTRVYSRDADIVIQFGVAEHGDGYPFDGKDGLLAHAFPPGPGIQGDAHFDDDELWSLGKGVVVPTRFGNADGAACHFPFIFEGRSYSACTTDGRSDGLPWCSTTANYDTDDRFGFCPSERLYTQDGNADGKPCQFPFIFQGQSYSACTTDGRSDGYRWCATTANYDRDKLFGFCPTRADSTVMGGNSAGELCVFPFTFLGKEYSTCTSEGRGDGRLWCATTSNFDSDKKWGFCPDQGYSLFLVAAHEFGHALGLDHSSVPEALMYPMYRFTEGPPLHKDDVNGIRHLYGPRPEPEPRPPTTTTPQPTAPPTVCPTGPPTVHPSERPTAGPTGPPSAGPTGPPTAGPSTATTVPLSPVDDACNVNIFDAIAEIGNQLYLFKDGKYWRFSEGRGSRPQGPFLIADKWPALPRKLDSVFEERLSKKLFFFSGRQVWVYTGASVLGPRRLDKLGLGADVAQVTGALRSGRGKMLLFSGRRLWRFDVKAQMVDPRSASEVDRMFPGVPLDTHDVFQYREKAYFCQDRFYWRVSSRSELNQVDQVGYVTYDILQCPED
T7 sequence (P08253 whole entry): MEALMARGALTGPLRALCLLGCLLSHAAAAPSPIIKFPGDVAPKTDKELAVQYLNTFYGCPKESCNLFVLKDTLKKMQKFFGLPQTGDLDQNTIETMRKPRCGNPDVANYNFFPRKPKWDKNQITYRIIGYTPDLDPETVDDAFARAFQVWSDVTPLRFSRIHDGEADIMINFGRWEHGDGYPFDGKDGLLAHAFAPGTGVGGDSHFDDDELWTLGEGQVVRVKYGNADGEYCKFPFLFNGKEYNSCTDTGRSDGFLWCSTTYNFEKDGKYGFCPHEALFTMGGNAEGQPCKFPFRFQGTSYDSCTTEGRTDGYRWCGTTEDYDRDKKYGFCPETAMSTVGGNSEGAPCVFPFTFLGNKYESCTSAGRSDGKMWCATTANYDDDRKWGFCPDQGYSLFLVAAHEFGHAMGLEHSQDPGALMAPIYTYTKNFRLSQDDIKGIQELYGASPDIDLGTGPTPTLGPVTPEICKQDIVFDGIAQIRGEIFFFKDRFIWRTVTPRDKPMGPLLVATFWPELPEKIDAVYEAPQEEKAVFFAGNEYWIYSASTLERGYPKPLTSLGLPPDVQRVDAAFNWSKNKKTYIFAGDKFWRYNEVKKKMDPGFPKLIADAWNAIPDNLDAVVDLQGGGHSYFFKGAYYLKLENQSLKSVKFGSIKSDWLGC
T6 sequence (P78536 whole entry, the tested form may be a part): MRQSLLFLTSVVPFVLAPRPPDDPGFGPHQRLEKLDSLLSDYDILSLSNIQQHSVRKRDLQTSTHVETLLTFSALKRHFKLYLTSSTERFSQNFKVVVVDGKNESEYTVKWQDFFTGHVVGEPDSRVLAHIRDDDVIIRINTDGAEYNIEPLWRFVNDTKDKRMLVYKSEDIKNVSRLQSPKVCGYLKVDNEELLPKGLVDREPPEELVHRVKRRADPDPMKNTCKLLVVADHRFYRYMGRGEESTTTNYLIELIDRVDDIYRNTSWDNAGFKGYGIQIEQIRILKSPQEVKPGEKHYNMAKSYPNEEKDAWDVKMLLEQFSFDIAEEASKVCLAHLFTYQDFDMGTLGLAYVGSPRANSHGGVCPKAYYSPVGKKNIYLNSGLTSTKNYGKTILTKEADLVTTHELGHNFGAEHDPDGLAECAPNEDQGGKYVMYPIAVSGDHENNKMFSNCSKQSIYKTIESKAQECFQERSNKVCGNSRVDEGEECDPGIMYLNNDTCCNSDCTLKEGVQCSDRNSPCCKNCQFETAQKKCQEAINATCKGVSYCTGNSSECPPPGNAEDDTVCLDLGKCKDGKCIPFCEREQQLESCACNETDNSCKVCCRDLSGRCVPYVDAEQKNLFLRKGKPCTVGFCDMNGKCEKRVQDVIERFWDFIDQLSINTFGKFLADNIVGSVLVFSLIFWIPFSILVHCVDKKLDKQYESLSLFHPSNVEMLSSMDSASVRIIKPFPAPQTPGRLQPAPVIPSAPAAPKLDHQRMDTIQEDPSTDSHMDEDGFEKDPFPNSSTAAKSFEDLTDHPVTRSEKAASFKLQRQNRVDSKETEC

`O=C(CCNS(=O)(=O)c1ccc(C(=O)O)cc1)NO`: the IC50 (as a rule, the concentration needed to halve the response being measured) at Meprin A subunit beta [1] turned out to be 340 nM.
In the case of `CCCCC[C@H](CC(=O)NO)C(=O)N[C@H](C(=O)N1CCC[C@H]1CO)C(C)C` [ACTINONIN], on Meprin A subunit beta [2], the Ki (in general, a dissociation constant, usually derived from enzyme kinetics or from competition with a known ligand) stood at 2000 nM.
Regarding `COc1ccc(S(=O)(=O)N(C)CC(=O)NO)cc1`, the IC50 at Meprin A subunit beta [1] was 32500 nM.
As to `O=C(CNS(=O)(=O)c1ccc(Cl)cc1)NO`, the IC50 at Meprin A subunit beta [1] stood at 17200 nM.
On to `O=C(O)Cc1ccc(S(=O)(=O)NCC(=O)NO)cc1`, for which, on Meprin A subunit beta [1], the IC50 worked out at 5030 nM.
The same measure, in the same setting: to `O=C(CN(Cc1cccc(C(=O)O)c1)S(=O)(=O)c1ccc(C(=O)O)cc1)NO` belongs 320 nM; to `COc1ccc(S(=O)(=O)N(CC(=O)NO)Cc2ccc(C(=O)O)cc2)cc1`, 980 nM; to `O=C(CCNS(=O)(=O)c1cccc(C(=O)O)c1)NO`, 220 nM.
As to `O=C(CNS(=O)(=O)c1cc(Cl)c(O)c(Cl)c1)NO`, at Meprin A subunit beta [1], the IC50 was 430 nM.
In the case of `O=C(CN(Cc1cccc(C(=O)O)c1)S(=O)(=O)c1cccc(C(=O)O)c1)NO`, the IC50 at Meprin A subunit alpha was found to be 27400 nM. Further, the “inhibition (INH)” value (in series [3]; on Collagenase 3 [5]; in [6]; in series [7]; in series [9]) was “Not Active” each time. For the same molecule, the Ratio IC50 was above 100 in the series listed under Homo sapiens [4], above 100 in the series listed under Homo sapiens [8] and 500 in the series listed under Homo sapiens [10].
Take `COc1ccc(S(=O)(=O)N(CC(=O)NO)Cc2cccc(C(=O)O)c2)cc1`: the IC50 at Meprin A subunit alpha was 3290 nM; at Collagenase 3 [11], 0.3 nM; in series [12], 1240 nM; in [13], 50 nM; in series [14], 11700 nM; in series [15], 2 nM. Also, the Ratio IC50 is above 100 in the series filed under Homo sapiens [4] and 60 in the series listed under Homo sapiens [10].
In the case of `O=C(CCNS(=O)(=O)c1cc(Cl)c(O)c(Cl)c1)NO`, the IC50 at Meprin A subunit beta [1] came out at 400 nM.
For the molecule `O=C(Nc1cc(C(=O)Nc2ccc(S(=O)(=O)O)cc2S(=O)(=O)O)cc(C(=O)Nc2ccc(S(=O)(=O)O)cc2S(=O)(=O)O)c1)Nc1cc(C(=O)Nc2ccc(S(=O)(=O)O)cc2S(=O)(=O)O)cc(C(=O)Nc2ccc(S(=O)(=O)O)cc2S(=O)(=O)O)c1`, on Meprin A subunit beta [16], the Ki turned out to be 22 nM.
For the molecule `O=C(CNS(=O)(=O)c1cccc(C(=O)O)c1)NO`, on Meprin A subunit beta [1], the IC50 amounted to 310 nM.
Still for that read-out and setting: to `COc1ccc(S(=O)(=O)N(CCc2ccccc2)CC(=O)NO)cc1` belongs 42900 nM.
